“Also recorded” adds a separate entry of the source.
What was measured:
[1] = particle size distribution by dynamic light scattering (Zetasizer Nano ZS); format: physicochemical
Description: The particle size distribution of the prepared emulsion was measured by dynamic light scattering using Zetasizer Nano ZS. The measurement conditions were 1 mM emulsion (40 μL) at 25° C. As a result, in all compositions, the volume median diameter was not more than 100 nm and, when a linear head was used (i.e., the formula (I) wherein X^a and X^b are each X^1), the particle size was not more than 50 nm. The drug recovery rate was not less than 85% (FIG. 1, Table 2).
EPC and Cholesterol were mixed to achieve 1000 nmol and a PEG lipid was added. Chloroform in an amount equal to that of the lipid ethanol solution was added and the mixture was dried under a nitrogen blow. PBS (1 mL) was added to the lipid membrane after drying and the mixture was stood for 10 min and sonicated by a bath-type sonicator for 3 min to give a particle suspension. The particle size distribution of the prepared particles was measured by dynamic light scattering in the same manner as in Example 1.
The particle size distribution of the produced emulsion solution was measured by dynamic light scattering similarly to Example 1. As a result, when DOPC was used, the volume median diameter was near 40 nm irrespective of pH.
An ethanol solution containing 500 nmol as a total of cationic B-2, DOPE, and Cholesterol was prepared, and a PEG lipid was added in the above-mentioned amount. Ethanol was added to make the total amount 200 μL, and the mixture was stood at ice temperature for 15 min. A similarly ice-cooled malic acid buffer (20 mM, pH 3.0, 0-1000 mM NaCl) (200 μL) was mixed within 3 sec under vortex. PBS (NISSUI) (3600 μL) was immediately added thereto. The mixture was subjected to ultrafiltration using Amicon Ultra (Millipore). The centrifugation conditions were 1000 G, 25° C. An operation including addition of 3200 μL of PBS after centrifugation for 10 min was repeated twice and the sample was concentrated to about 500 μL. The concentrate was diluted with PBS to a mass of 1000 mg to give a 0.5 mM (lipid concentration) emulsion. The particle size distribution of the produced emulsion solution was measured by dynamic light scattering similarly to Example 1.
The volume median diameter and the surface potential were measured using the dynamic light scattering (Zetasizer Nano; Malvern) in the same manner as in Example 1.
The average particle size of the produced particles was measured in the same manner as in Example 1 and the results are shown in Table 7.

[2] = organ accumulation of particles in 4T1 tumor-bearing mouse (IVIS); format: in vivo, BALB/c mouse; settings: intravenous, lipid 800 nmol, 24 hr after administration, DiR fluorescence
Description: As cationic lipid, B-2 and B-2-5 were used. As conventional lipid, DODAP and EPC were used. The preparation methods of the O/W type emulsion and particle suspensions (DODAP, EPC) followed the methods described in Example 1 and Comparative Example 1. To visualize pharmacokinetics of the oil droplets constituting the O/W type emulsion or particle suspension (DODAP, EPC), fluorescent dye DiR was added by 0.2 mol % of the lipid. The particle concentration was adjusted to 4 mM as a lipid concentration.
As a tumor-bearing mouse, 4T1 cell (mouse breast cancer) was used. 1×10^6 4T1 cells were subcutaneously transplanted to the right flank of BALB/c mouse (♀, 4-week-old). At 7 days from the transplantation, 200 μL (lipid 800 nmol) of the O/W type emulsion or particle suspension (DODAP, EPC) containing fluorescence-modified particles was intravenously administered. At 24 hr after administration, […] was performed, and the spleen, liver and tumor were collected and image was obtained by IVIS. The average fluorescence intensity was calculated using Living Image Software.
As a cationic lipid, B-2 was used. An O/W type emulsion was prepared according to Example 3. In this preparation, 4-Methylumbelliferon (10 mol %) was used as a model drug and DMG-PEG2000 (10 mol %) and DSG-PEG2000 (2.5 mol %) were used as PEG lipids, and a 4.0 mM (based on lipid concentration) emulsion was prepared. To visualize pharmacokinetics of the oil droplets constituting the O/W type emulsion or particle suspension (DODAP, EPC), fluorescent dye DiR was added by 0.2 mol % of the lipid. As the salt (NaCl) concentration during preparation of particles, 30 mM, 150 mM, 750 mM were selected and taken as “Small”, “Medium”, “Large”, respectively. The particle concentration was adjusted to 4 mM as a lipid concentration.
The organ distribution in a tumor-bearing mouse was evaluated in the same manner as in Experimental Example 1. As a result, accumulation in the spleen, liver decreased as the particle size became smaller.

[3] = retentivity in blood test, 4 MU-Pal versus 4 MU-CHEMS; format: in vivo; settings: B-2:DOPC:Chol emulsion, tail vein, ICR mouse; comparison with 4 MU-Pal
Description: To a lipid mixture of B-2:DOPC:Chol=3:4:3 were added DSG-PEG2000 (9 mol %) and 30 mol % 4 MU-Pal, and 1 mol % fluorescent dye DiD was added to give an emulsion by a method similar to that in Example 1.
To a lipid mixture of B-2:DOPC:Chol:4 MU-CHEMS=3:4:1.5:1.5 was added DSG-PEG2000 (15 mol %), fluorescent dye DiD (1 mol %) was further added, and an emulsion was prepared by a method similar to that in Example 1.
The concentration of the particle suspension was set to 4 mM as a lipid concentration (B-2+DOPC+Chol). The suspension (250 μL) was administered to ICR mouse J 4-week-old from the tail vein. Blood (25 μL) was collected at each time point and mixed with pH 10.4 borate buffer (275 μL), ethanol (150 μL), 10% SDS (50 μL). 4 MU-Pal or 4 MU-CHEMS was hydrolyzed by incubation at 60° C. for 30 min. The fluorescence of the resulting 4-methylumbelliferone, and DiD modified by particles was each measured by a plate reader and the residual amount in the blood was examined from the analytical curve.

[4] = DexPal-carrying rate by high performance liquid chromatography; format: physicochemical; settings: DexPal-carrying LNP
Description: 1 mM DexPal-carrying LNP (50 μL) was mixed with phosphate buffer (pH 7.4) (50 μL), and 50 μL thereof was mixed with MeOH (50 μL). 0.1% Trifluoroacetic acid/acetonitrile (400 μL) was added, and DexPal was detected by high performance liquid chromatography (column: InertSustain C18, 5 μm, 4.6 mm×250 mm (GL Sciences Inc.), mobile phase: MeOH:0.1% trifluoroacetic acid/acetonitrile=70:30, flow rate: 1 mL/min, detector: 240 nm, injection volume: 200 μL). As the analytical curve of Dex-Pal, 0.5 mM, 0.25 mM, 0.125 mM, 0.0625 mM, DexPalethanol solution (50 μL) was mixed with MeOH (50 μL), and 50 μL thereof was mixed with phosphate buffer (pH 7.4) (50 μL). 0.1% Trifluoroacetic acid/acetonitrile (400 μL) was added, and DexPal was detected by a method similar to that for DexPal-carrying LNP. The peak area and concentration were plotted, and the DexPal concentration and carrying rate in the DexPal-carrying LNP were calculated.

[5] = drug release and reduction responsibility test (dialysis, with or without 10 mM glutathione); format: physicochemical
Description: Using B-2, B-2-5, O-C3M, B-2-3, TS-P4C2 or L-PZ4C2 as a cationic lipid, an O/W type emulsion having a composition of cationic lipid:DOPC:Cholesterol=3:4:3 (molar ratio) was prepared. In this preparation, DSG-PEG2000 (9 mol %) was used as a PEG lipid. As a drug model molecule, 4-Methylumbelliferon Palmitate (30 mol %) was used and fluorescent probe DiD (1 mol %) was used for calibration by particles concentration.
An ethanol solution containing 1000 nmol as a total of cationic lipid, DOPE, and Cholesterol was prepared, and PEG lipid, drug model molecule and fluorescent probe were added in the above-mentioned amounts. Ethanol was added to make the total amount 400 μL, and the mixture was stood at 37° C. for 15 min. A similarly heated malic acid buffer (20 mM, pH 3.0, 30 mM NaCl) (400 μL) was mixed within 3 sec under vortex. PBS (NISSUI) (3200 μL) was immediately added thereto. The mixture was subjected to ultrafiltration using Amicon Ultra (Millipore) The centrifugation conditions were 1000 g, 25° C. […]
400 μL of the prepared emulsion was placed in a dialysis membrane (Spectrum Lab) having a molecular weight cutoff of 1000 and dialyzed against 40 mL of PBS at 37° C. […] After penetration and stirring at 60° C. for 30 min, the amounts of 4MU and DiD in the solution were quantified by fluorescence measurement (4MU: Ex385, Em450 DiD: Ex645, Em665). […]

[6] = O/W emulsion cationic lipid:DOPE:Cholesterol=3:4:3, 4-Methylumbelliferon 10 mol %, DMG-PEG2000 10 mol %, DSG-PEG2000 2.5 mol %
[7] = O/W emulsion cationic lipid:DOPE:Cholesterol=3:4:3, 4-Methylumbelliferon 10 mol %, DMG-PEG2000 10 mol %, DSG-PEG2000 2.5 mol %, 1 mM, 25° C.
[8] = DexPal-carrying particles (lipid, DOPC, Chol, DMG-PEG2000, DSG-PEG2000, DexPal)

Row | PdI [1, 6] | volume median diameter [1, 7] [nm] | PdI ([1]; DexPal-carrying particles) | volume median diameter [1, 8] [nm·days] | carrying rate [4] [%] | transfer into tumor [2] | SMILES | also measured
1 | 0.164 | 41.2 | – | – | – | – | Cc1c(C)c2c(c(C)c1OC(=O)CCC(=O)OCCCN(C)CCSSCCN(C)CCCOC(=O)CCC(=O)Oc1c(C)c(C)c3c(c1C)CCC(C)(CCCC(C)CCCC(C)CCCC(C)C)O3)CCC(C)(CCCC(C)CCCC(C)CCCC(C)C)O2 (stereo not drawn) [B-2-5] | accumulation in the liver [2]: superior in accumulation in the liver; also recorded: found
2 | – | – | – | – | – | – | Cc1cc(=O)oc2cc(OC(=O)CCC(=O)OC3CCC4(C)C(=CCC5C4CCC4(C)C(C(C)CCCC(C)C)CCC54)C3)ccc12 (stereo not drawn) [4 MU-CHEMS, 4-methylumbelliferone cholesterol hemisuccinate] | retentivity in blood [3]: stayed longer in the blood than 4 MU-Pal
3 | 0.465 | 37.6 | 0.15 ± 0.01 | 41.4 ± 0.7 | 90.6 ± 5.2 | transfer well into tumor | CCCCCCCCCCCCCC(=O)OCCCN(C)CCSSCCN(C)CCCOC(=O)CCCCCCCCCCCCC [B-2] | volume median diameter ([1]; B-2:DOPE:Cholesterol=3:4:3, 15 mol % DMG-PEG2000, NaCl concentration of 60 mM or below at preparation): 30-50 nm; volume median diameter ([1]; B-2:DOPE:Cholesterol=3:4:3, 15 mol % DMG-PEG2000, salt concentration of 500 mM or below at preparation): ≤ 100 nm
4 | 0.419 | 34.3 | – | – | – | – | CCCCC/C=C\C/C=C\CCCCCCCC(=O)OCCCN(C)CCSSCCN(C)CCCOC(=O)CCCCCCC/C=C\C/C=C\CCCCC [B-2-3] | –
5 | – | – | 0.15 ± 0.01 | 39.1 ± 2.2 | 89.6 ± 2.9 | transfer well into tumor | CCCCCCCC/C=C\CCCCCCCC(=O)OCC(CN(C)C)OC(=O)CCCCCCC/C=C\CCCCCCCC (stereo not drawn) [DODAP] | PdI ([1]; particle suspension of conventional lipid (DODAP:DOPE:Cholesterol=3:4:3 or EPC:Cholesterol=3:2)): 0.418; volume median diameter ([1]; particle suspension of conventional lipid (DODAP:DOPE:Cholesterol=3:4:3 or EPC:Cholesterol=3:2), 4-Methylumbelliferon 10 mol %): 34.8 nm; release of drug model substance ([5]; conventional lipid particle suspension, 24 hr, under any conditions (reduction or nonreduction)): hardly released; responsiveness under reduction ([5]; conventional lipid:DOPC:Cholesterol=3:4:3 particle suspension, 4-Methylumbelliferon Palmitate 30 mol %): not found
6 | 0.063 | 87.9 | – | – | – | – | Cc1c(C)c2c(c(C)c1OC(=O)CCC(=O)OCCC1CCN(CCSSCCN3CCC(CCOC(=O)CCC(=O)Oc4c(C)c(C)c5c(c4C)CCC(C)(CCCC(C)CCCC(C)CCCC(C)C)O5)CC3)CC1)CCC(C)(CCCC(C)CCCC(C)CCCC(C)C)O2 (stereo not drawn) [TS-P4C2] | –
